Where two headings read alike, the source gives them in different places.
What was measured:
Assay type in all cases: in vivo
Plasmopara viticola = assay: Test B: grape downy mildew, spray 24 h after inoculation (disease rating, 100 = 100% disease control); details: for pest or weed control at 40 ppm: Plasmopara viticola, 144 h, read-out: Test B disease rating (100 = 100% disease control, 0 = no disease control)
Procedure, shortened: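 Grape seedlings were inoculated with Plasmopara viticola and held 24 h saturated at 20 °C, then sprayed to run-off with compound suspension (acetone/water with 250 ppm Trem 014; 200 ppm ≈ 500 g/ha). After 5 days at 20 °C and 24 h saturation, disease was rated from 0 to 100% control versus untreated.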

Phytophthora infestans [1] = assay: whole plant or invertebrate; details: for Test C disease rating (100 = 100% disease control, 0 = no disease control): tomato late blight; for pest or weed control at 40 ppm: Phytophthora infestans, in Solanum lycopersicum, 144 h, read-out: Test C disease rating (100 = 100% disease control, 0 = no disease control)
Phytophthora infestans [2] = assay: whole plant or invertebrate; details: for Test D disease rating (100 = 100% disease control, 0 = no disease control): tomato late blight; for pest or weed control at 40 ppm: Phytophthora infestans, in Solanum lycopersicum, topical, 96 h, read-out: Test D disease rating (100 = 100% disease control, 0 = no disease control)
[3] = tested on: Erysiphe graminis f. sp. tritici; assay: Test E: wheat powdery mildew, spray the day before inoculation (disease rating, 100 = 100% disease control); details: for pest or weed control at 40 ppm: Blumeria graminis, topical, 168 h, read-out: Test E disease rating (100 = 100% disease control, 0 = no disease control)
Procedure, shortened: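 Wheat seedlings sprayed to run-off with compound suspended in acetone/water 50/50 with 250 ppm Trem 014 (200 ppm equivalent to 500 g/ha); inoculated next day with Erysiphe graminis f. sp. tritici spore dust. Kept 7 days at 20° C, then rated 0–100% disease control versus controls.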

[4] = spray 24 h after inoculation, compounds without asterisk (not 40 or 10 ppm)
[5] = spray the day before inoculation, compounds without asterisk (not 40 or 10 ppm)
[6] = spray 17 h after inoculation, compounds without asterisk (not 40 or 10 ppm)
[7] = spray 24 h after inoculation, tested at 40 ppm
[8] = spray the day before inoculation, tested at 40 ppm
[9] = spray 24 h after inoculation, tested at 10 ppm
[10] = spray the day before inoculation, tested at 10 ppm
[11] = spray 17 h after inoculation, tested at 10 ppm
[12] = sprayed 24 h after inoculation, unmarked compounds (no asterisk, not 40 or 10 ppm)
[13] = sprayed the day before inoculation, unmarked compounds (no asterisk, not 40 or 10 ppm)
[14] = sprayed 17 h after inoculation, unmarked compounds (no asterisk, not 40 or 10 ppm)
[15] = sprayed the day before inoculation, 7 days at 20° C., unmarked compounds (no asterisk, not 40 or 10 ppm)

SMILES | Test B disease rating (100 = 100% disease control, 0 = no disease control) (Plasmopara viticola; [4]) | Test C disease rating (100 = 100% disease control, 0 = no disease control) (Phytophthora infestans [1]; [5]) | Test D disease rating (100 = 100% disease control, 0 = no disease control) (Phytophthora infestans [2]; [6]) | Test E disease rating (100 = 100% disease control, 0 = no disease control) [3, 5] | other results
Cc1cc(C(C)C)nn1CC(=O)N1CCC(c2nc(C(=O)N(C)[C@H](C)c3ccccc3)cs2)CC1 [compound 127] | 0% | 92% | 0% | 0% | 
Cc1cc(C(F)(F)F)nn1CC(=O)N1CCN(c2nc(C(=O)N(C)[C@@H]3CCCc4ccccc43)cs2)CC1 [Compound 220, N-methyl-2-[4-[[5-methyl-3-(trifluoromethyl)-1H-pyrazol-1-yl]acetyl]-1-piperazinyl]-N-[(1R)-1,2,3,4-tetrahydro-1-naphthalenyl]-4-thiazolecarboxamide] |  |  |  |  | pest or weed control at 40 ppm (Plasmopara viticola; [7]): 95%; pest or weed control at 40 ppm (Phytophthora infestans [1]): 100%; pest or weed control at 40 ppm (Phytophthora infestans [2]): 98%; pest or weed control at 40 ppm [3, 8]: 0%
CC(=O)OC1CCc2ccccc2C1N(C)C(=O)c1csc(C2CCN(C(=O)Cn3nc(C(F)(F)F)cc3C)CC2)n1 (stereo not shown) [compound 195] | 47% | 99% | 88% | 0% | 
CC(c1cccnc1)N(C)C(=O)c1csc(C2CCN(C(=O)Cc3cccc(C(F)(F)F)c3)CC2)n1 (stereo not shown) [compound 66] | 2% | 54% | 42% | 0% | 
Cc1cc(C(F)(F)F)nn1CC(=O)N1CCC(c2nc(C(=O)N(C)C3CCCCc4ccccc43)cs2)CC1 (stereo not shown) [compound 181] |  |  |  |  | Test B disease rating (100 = 100% disease control, 0 = no disease control) (Plasmopara viticola; [9]): 73%; Test C disease rating (100 = 100% disease control, 0 = no disease control) (Phytophthora infestans [1]; [10]): 100%; Test D disease rating (100 = 100% disease control, 0 = no disease control) (Phytophthora infestans [2]; [11]): 98%; Test E disease rating (100 = 100% disease control, 0 = no disease control) [3, 10]: 0%
C[C@H](c1ccccc1)N(C)C(=O)c1csc(C2CCN(C(=O)Cn3cnc(C(C)(C)C)c3)CC2)n1 [compound 141] | 0% | 0% | 0% | 0% | 
CCCc1nc(C(F)(F)F)cn1CC(=O)N1CCC(c2nc(C(=O)N(C)[C@H](C)c3ccccc3)cs2)CC1 [compound 123] | 13% | 100% | 47% | 7% | 
Cc1cccc(CC(=O)N2CCC(c3nc(C(=O)N(C)C(C)c4ncc(Cl)cc4Cl)cs3)CC2)c1 (stereo not shown) [compound 61] | 2% | 69% | 0% | 0% | 
Cc1cc(C(F)(F)F)nn1CC(=O)N1CCC(c2nc(C(=O)N(C)C3COc4ccccc43)cs2)CC1 (stereo not shown) [compound 184] |  |  |  |  | Test B disease rating (100 = 100% disease control, 0 = no disease control) (Plasmopara viticola; [9]): 77%; Test C disease rating (100 = 100% disease control, 0 = no disease control) (Phytophthora infestans [1]; [10]): 99%; Test D disease rating (100 = 100% disease control, 0 = no disease control) (Phytophthora infestans [2]; [11]): 76%; Test E disease rating (100 = 100% disease control, 0 = no disease control) [3, 10]: 0%
Cc1ccc(C)c(CC(=O)N2CCC(c3nc(C(=O)N(C)C4CCCc5ccccc54)cs3)CC2)c1 (stereo not shown) [compound 99] | 97% | 100% | 99% | 0% | 
Cc1cc(C(F)(F)F)nn1CC(=O)N1CCC(c2nc(C(=O)N(C)[C@@H]3CCCc4ccccc43)no2)CC1 [compound 225] | 83% | 100% | 99% | 0% | 
Cc1cc(C(F)(F)F)nn1CC(=O)N1C=CC(c2nc(C(=O)N(C)[C@@H]3CCCc4ccccc43)cs2)CC1 (stereo partly drawn) [Compound 315, N-methyl-2-[1,2,3,4-tetrahydro-1-[[5-methyl-3-(trifluoromethyl)-1H-pyrazol-1-yl]acetyl]-4-pyridinyl]-N-[(1R)-1,2,3,4-tetrahydro-1-naphthalenyl]-4-thiazolecarboxamide] |  |  |  |  | Test B disease rating (100 = 100% disease control, 0 = no disease control) (Plasmopara viticola; sprayed 24 h after inoculation, tested at 10 ppm (**)): 72; Test C disease rating (100 = 100% disease control, 0 = no disease control) (Phytophthora infestans [1]; sprayed the day before inoculation, tested at 10 ppm (**)): 100; Test D disease rating (100 = 100% disease control, 0 = no disease control) (Phytophthora infestans [2]; sprayed 17 h after inoculation, tested at 10 ppm (**)): 88; Test E disease rating (100 = 100% disease control, 0 = no disease control) ([3]; sprayed the day before inoculation, 7 days at 20° C., tested at 10 ppm (**)): 0
CC[C@H](c1ccccc1)N(C)C(=O)c1csc(C2CCN(C(=O)Cc3ccccc3OC)CC2)n1 [compound 115] | 100% | 100% | 99% | 0% | 
COC(=O)C1CC(N(C)C(=O)c2csc(C3CCN(C(=O)Cn4nc(C(F)(F)F)cc4C)CC3)n2)c2ccccc21 (stereo not shown) [compound 229] | 97% | 100% | 90% | 0% | 
Cc1cc(C(F)(F)F)nn1CC(=O)N1C2CCC1CC(c1nc(C(=O)N(C)[C@@H]3CCCc4ccccc43)cs1)C2 (stereo partly shown) [compound 316] |  |  |  |  | Test B disease rating (100 = 100% disease control, 0 = no disease control) (Plasmopara viticola; [12]): 97; Test C disease rating (100 = 100% disease control, 0 = no disease control) (Phytophthora infestans [1]; [13]): 100; Test D disease rating (100 = 100% disease control, 0 = no disease control) (Phytophthora infestans [2]; [14]): 97; Test E disease rating (100 = 100% disease control, 0 = no disease control) [3, 15]: 0
Cc1cc(C(F)(F)F)nn1CC(=O)N1CCC(c2nc(C(=O)N(C)C3CCCc4sccc43)cs2)CC1 (stereo not shown) [compound 182] |  |  |  |  | Test B disease rating (100 = 100% disease control, 0 = no disease control) (Plasmopara viticola; [7]): 99%; Test C disease rating (100 = 100% disease control, 0 = no disease control) (Phytophthora infestans [1]; [8]): 100%; Test D disease rating (100 = 100% disease control, 0 = no disease control) (Phytophthora infestans [2]; spray 17 h after inoculation, tested at 40 ppm): 98%; Test E disease rating (100 = 100% disease control, 0 = no disease control) [3, 8]: 0%
Cc1cc(C(F)(F)F)nn1CC(=O)N1CCC(c2nc(C(=O)N3CCc4ccccc4C3)cs2)CC1 [compound 296] |  |  |  |  | Test B disease rating (100 = 100% disease control, 0 = no disease control) (Plasmopara viticola; [12]): 82; Test C disease rating (100 = 100% disease control, 0 = no disease control) (Phytophthora infestans [1]; [13]): 100; Test D disease rating (100 = 100% disease control, 0 = no disease control) (Phytophthora infestans [2]; [14]): 93; Test E disease rating (100 = 100% disease control, 0 = no disease control) [3, 15]: 0
Cc1cc(C(F)(F)F)nn1CC(=O)N1CCC(c2nc(C(=O)N(C)C(C)(C)c3ccccc3)cs2)CC1 [compound 237] | 81% | 99% | 99% | 62% | 
Cc1cc(C(F)(F)F)nn1CC(=O)N1CC=C(c2nc(C(=O)N(C)[C@@H]3CCCc4ccccc43)cs2)CC1 [Compound 218, N-methyl-2-[1,2,3,6-tetrahydro-1-[[5-methyl-3-(trifluoromethyl)-1H-pyrazol-1-yl]acetyl]-4-pyridinyl]-N-[(1R)-1,2,3,4-tetrahydro-1-naphthalenyl]-4-thiazolecarboxamide] |  |  |  |  | pest or weed control at 40 ppm (Plasmopara viticola; [7]): 91%; pest or weed control at 40 ppm (Phytophthora infestans [1]): 100%; pest or weed control at 40 ppm (Phytophthora infestans [2]): 99%; pest or weed control at 40 ppm [3, 8]: 0%
Cc1cc(C)n(CC(=O)N2CCC(c3nc(C(=O)N(C)[C@H](C)c4ccccc4)cs3)CC2)c1 [compound 101] | 0% | 70% | 8% | 0% | 
Cc1cccc(CC(=O)N2CCC(c3nc(C(=O)N(C)Cc4cccnc4)cs3)CC2)c1 [compound 164] | 1% | 60% | 0% | 0% | 
Cc1cc(C(F)(F)F)nn1CC(=O)N1CCC(c2nc(C(=O)N3CCC(C)CC3)cs2)CC1 [compound 308] |  |  |  |  | Test B disease rating (100 = 100% disease control, 0 = no disease control) (Plasmopara viticola; [12]): 98; Test C disease rating (100 = 100% disease control, 0 = no disease control) (Phytophthora infestans [1]; [13]): 100; Test D disease rating (100 = 100% disease control, 0 = no disease control) (Phytophthora infestans [2]; [14]): 93; Test E disease rating (100 = 100% disease control, 0 = no disease control) [3, 15]: 0

From US8586611B2 (priority 2005, dated 2013)
